Test results published in the NIST ThermoML archive (doi:10.1016/j.tca.2017.12.006).

Details: Liquid, Transpiration method

CCCCOC(=O)CCC(C)=O [butyl levulinate]
Details | vapor or sublimation pressure [kPa]
298.2 K | 0.00393
303.2 K | 0.00611
308.1 K | 0.00895
313 K | 0.01421
318 K | 0.01999
323 K | 0.03006
327.9 K | 0.0443
332.8 K | 0.0632
337.8 K | 0.0939
342.8 K | 0.1289
347.8 K | 0.181

CCOC(=O)CCC(C)=O [ethyl levulinate]
Details | vapor or sublimation pressure [kPa]
293.5 K | 0.0169
298.4 K | 0.0253
303.3 K | 0.0375
308.3 K | 0.0542
313.3 K | 0.0795
318.3 K | 0.1129
323.3 K | 0.1613
328.2 K | 0.2312
333.1 K | 0.3106
338.1 K | 0.415
343.1 K | 0.553
348.8 K | 0.758

COC(=O)CCC(C)=O [methyl levulinate]
Details | vapor or sublimation pressure [kPa]
293.5 K | 0.0302
298.5 K | 0.0442
303.3 K | 0.0638
308.5 K | 0.0929
313.4 K | 0.1359
318.3 K | 0.1837
323.2 K | 0.2626
328.2 K | 0.3572
333.2 K | 0.501
338.2 K | 0.659
343.1 K | 0.878
348.2 K | 1.142
353.2 K | 1.473
